Source: patent US20220024945A1, “THERAPEUTIC COMPOUNDS AND COMPOSITIONS, AND METHODS OF USE THEREOF” (Genentech, Inc., priority 2017, published 2022)
Where two headings read alike, the source gives them in different places.

Assays:
[1] = biological target: isolated recombinant JAK1 kinase domain (Homo sapiens, UniProt P23458); assay: JAK enzyme assay (Caliper LabChip), JAK1 kinase domain; format: biochemical; conditions: ATP 25 μM; 1.5 nM JAK1; Morrison tight binding model
[2] = test system: JAK1-dependent STAT6 phosphorylation downstream of IL-13 stimulation, BEAS-2B cells; assay: JAK1 pathway assay in cell lines: P-STAT6 in BEAS-2B cells + IL13; format: cell-based; conditions: BEAS-2B human bronchial epithelial cells, 1 hr compound preincubation, read-out: P-STAT6 BEAS2B + IL13 IC50
Experimental: JAK1 Pathway Assay in Cell Lines was Carried Out as Follows:
Inhibitor potency (EC50) was determined in cell-based assays designed to measure JAK1 dependent STAT phosphorylation. As noted above, inhibition of IL-4, IL-13, and IL-9 signaling by blocking the Jak/Stat signaling pathway can alleviate asthmatic symptoms in pre-clinical lung inflammation models (Mathew et al., 2001, J Exp Med 193(9): 1087-1096; Kudlacz et. al., 2008, Eur J. Pharmacol 582(1-3): 154-161).
In one assay approach, TF-1 human erythroleukemia cells obtained from the American Type Culture Collection (ATCC; Manassas, Va.) were used to measure JAK1-dependent STAT6 phosphorylation downstream of IL-13 stimulation. Prior to use in the assays, TF-1 cells were starved of GM-CSF overnight in OptiMEM medium (Life Technologies, Grand Island, N.Y.) supplemented with 0.5% charcoal/dextran stripped fetal bovine serum (FBS), 0.1 mM non-essential amino acids (NEAA), and 1 mM sodium pyruvate. The assays were run in 384-well plates in serum-free OptiMEM medium using 300,000 cells per well. In a second assay approach, BEAS-2B human bronchial epithelial cells obtained from ATCC were plated at 100,000 cells per well of a 96-well plate one day prior to the experiment. The BEAS-2B assay was run in complete growth medium (bronchial epithelial basal medium plus bulletkit; Lonza; Basel, Switzerland).
Test compounds were serially diluted 1:2 in DMSO and then diluted 1:50 in medium just before use. Diluted compounds were added to the cells, for a final DMSO concentration of 0.2%, and incubated for 30 m (for the TF-1 assay) or 1 hr (for the BEAS-2B assay) at 37° C. Then, cells were stimulated with human recombinant cytokine at their respective EC90 concentrations, as previously determined for each individual lot. Cells were stimulated with […] (R&D Systems, Minneapolis, Minn.) for 15 m/at 37° C. The TF-1 cell reactions were stopped by the direct addition of 10× lysis buffer (Cell Signaling Technologies, Danvers, Mass.), whereas the BEAS-2B cell incubations were halted by the removal of medium and addition of 1× lysis buffer. The resultant samples were frozen in the plates at −80° C. Compound mediated inhibition of STAT6 phosphorylation was measured in the cell lysates using MesoScale Discovery (MSD) technology (Gaithersburg, Md.). EC50 values were determined as the concentration of compound required for 50% inhibition of STAT phosphorylation relative to that measured for the DMSO control.

[3] = biological target: isolated recombinant JAK2 kinase domain (Homo sapiens, UniProt O60674); assay: JAK enzyme assay (Caliper LabChip), JAK2 kinase domain; conditions: ATP 25 μM, 0.2 nM JAK2, Morrison tight binding model
isolated recombinant JAK2 kinase domain, sequence (O60674 849-1124 limits assumed): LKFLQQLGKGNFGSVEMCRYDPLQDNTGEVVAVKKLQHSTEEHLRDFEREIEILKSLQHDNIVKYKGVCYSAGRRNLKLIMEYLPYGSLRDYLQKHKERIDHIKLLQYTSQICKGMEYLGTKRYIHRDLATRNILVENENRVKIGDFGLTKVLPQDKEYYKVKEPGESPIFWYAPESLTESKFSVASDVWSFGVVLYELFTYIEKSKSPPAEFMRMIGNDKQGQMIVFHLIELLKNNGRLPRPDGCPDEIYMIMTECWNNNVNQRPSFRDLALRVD
Experimental: JAK Enzyme Assays were Carried Out as Follows:
The activity of the isolated recombinant JAK1 and JAK2 kinase domain was measured by monitoring phosphorylation of a peptide derived from JAK3 ([sequence] fluorescently labeled on the N-terminus with 5-carboxyfluorescein) using the Caliper LabChip® technology (Caliper Life Sciences, Hopkinton, Mass.). […] Reactions were incubated at 22° C. in 384-well polypropylene microtiter plates for 30 minutes and then stopped by addition of 25 μL of an EDTA containing solution (100 mM HEPES buffer (pH 7.2), 0.015% Brij-35, 150 mM EDTA), resulting in a final EDTA concentration of 50 mM. After termination of the kinase reaction, the proportion of phosphorylated product was determined as a fraction of total peptide substrate using the Caliper LabChip® 3000 according to the manufacturer's specifications.

isolated recombinant JAK1 kinase domain, sequence (P23458 875-1153 limits assumed): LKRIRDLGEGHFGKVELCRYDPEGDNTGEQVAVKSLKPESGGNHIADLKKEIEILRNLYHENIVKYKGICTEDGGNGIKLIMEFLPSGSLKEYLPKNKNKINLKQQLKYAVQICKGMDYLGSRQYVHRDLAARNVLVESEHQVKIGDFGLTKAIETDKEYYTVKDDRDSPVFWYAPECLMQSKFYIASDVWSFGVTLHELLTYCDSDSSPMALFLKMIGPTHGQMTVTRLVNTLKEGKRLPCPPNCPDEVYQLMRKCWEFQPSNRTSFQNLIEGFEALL

Row | Compound | Ki [1] | Ki [3] | IC50 ([2]; Homo sapiens, BEAS-2B, 1 h) | IC50 [2]
1 | CC[C@H](O)Cn1cc(NC(=O)c2cnn3cccnc23)c(-c2cc(SC)ccc2OC(F)F)n1 (racemic) [Example 41, N-[3-[2-(difluoromethoxy)-5-methylsulfanyl-phenyl]-1-[rac-(2S)-2-hydroxybutyl]pyrazol-4-yl]pyrazolo[1,5-a]pyrimidine-3-carboxamide] | 0.35 nM | 0.25 nM | 13 nM | 
2 | CN1CCCC(Sc2ccc(OC(F)F)c(-c3n[nH]cc3NC(=O)c3cnn4cccnc34)c2)C1 (single isomer, unassigned) [Example 31, N-[3-[2-(difluoromethoxy)-5-[(1-methyl-3-piperidyl)sulfanyl]phenyl]-1H-pyrazol-4-yl]pyrazolo[1,5-a]pyrimidine-3-carboxamide] | 9.73 nM | 3.47 nM |  | 
3 | O=C(Nc1c[nH]nc1-c1cc(SC2CCCNC2)ccc1OC(F)F)c1cnn2cccnc12 (single isomer, unassigned) [Example 36, N-[3-[2-(difluoromethoxy)-5-(3-piperidylsulfanyl)phenyl]-1H-pyrazol-4-yl]pyrazolo[1,5-a]pyrimidine-3-carboxamide] | 91.5 nM | 51.7 nM |  | > 1000 nM
4 | CC(C)Sc1ccc(OC(F)F)c(-c2nn(Cc3cn(C4CCN([C@H]5CCOC5)CC4)nn3)cc2NC(=O)c2cnn3cccnc23)c1 (stereo in doubt) [Example 11, N-[3-[2-(difluoromethoxy)-5-isopropylsulfanyl-phenyl]-1-[[1-[1-[rac-(3S)-tetrahydrofuran-3-yl]-4-piperidyl]triazol-4-yl]methyl]pyrazol-4-yl]pyrazolo[1,5-a]pyrimidine-3-carboxamide; formic acid] | 0.69 nM | 0.49 nM | 23 nM | 
5 | CC(C)Sc1ccc(OC(F)F)c(-c2nn(Cc3cn(C4CCN([C@@H]5CCOC5)CC4)nn3)cc2NC(=O)c2cnn3cccnc23)c1 (stereo in doubt) [Example 12, N-[3-[2-(difluoromethoxy)-5-isopropylsulfanyl-phenyl]-1-[[1-[1-[rac-(3R)-tetrahydrofuran-3-yl]-4-piperidyl]triazol-4-yl]methyl]pyrazol-4-yl]pyrazolo[1,5-a]pyrimidine-3-carboxamide; formic acid] | 0.64 nM | 0.46 nM | 22 nM | 
6 | O=C(Nc1cn(Cc2cn(C3CCN([C@H]4CCOC4)CC3)nn2)nc1-c1cc(SC2CC2)ccc1OC(F)F)c1cnn2cccnc12 (stereo in doubt) [Example 13, N-[3-[5-cyclopropylsulfanyl-2-(difluoromethoxy)phenyl]-1-[[1-[1-[rac-(3S)-tetrahydrofuran-3-yl]-4-piperidyl]triazol-4-yl]methyl]pyrazol-4-yl]pyrazolo[1,5-a]pyrimidine-3-carboxamide] | 0.56 nM | 0.36 nM | 17 nM | 
7 | O=C(Nc1cn(Cc2cn(C3CCN([C@@H]4CCOC4)CC3)nn2)nc1-c1cc(SC2CC2)ccc1OC(F)F)c1cnn2cccnc12 (stereo in doubt) [Example 14, N-[3-[5-cyclopropylsulfanyl-2-(difluoromethoxy)phenyl]-1-[[1-[1-[rac-(3R)-tetrahydrofuran-3-yl]-4-piperidyl]triazol-4-yl]methyl]pyrazol-4-yl]pyrazolo[1,5-a]pyrimidine-3-carboxamide] | 0.4 nM | 0.29 nM | 13 nM | 
8 | O=C(Nc1cn(Cc2cn(C3CCN([C@H]4CCOC4)CC3)nn2)nc1-c1cc(SC2COC2)ccc1OC(F)F)c1cnn2cccnc12 (stereo in doubt) [Example 20, N-[3-[2-(difluoromethoxy)-5-(oxetan-3-ylsulfanyl)phenyl]-1-[[1-[1-[rac-(3S)-tetrahydrofuran-3-yl]-4-piperidyl]triazol-4-yl]methyl]pyrazol-4-yl]pyrazolo[1,5-a]pyrimidine-3-carboxamide; formic acid] | 0.66 nM | 0.44 nM | 67 nM | 
9 | O=C(Nc1c[nH]nc1-c1cc(SC2CCCCC2)ccc1OC(F)F)c1cnn2cccnc12 [Example 2, N-[3-[5-cyclohexylsulfanyl-2-(difluoromethoxy)phenyl]-1H-pyrazol-4-yl]pyrazolo[1,5-a]pyrimidine-3-carboxamide] | 0.67 nM | 0.28 nM | 43 nM | 
10 | O=C(Nc1c[nH]nc1-c1cc(SC2CCOC2)ccc1OC(F)F)c1cnn2cccnc12 (centres unmarked) [Example 8, N-[3-[2-(difluoromethoxy)-5-tetrahydrofuran-3-ylsulfanyl-phenyl]-1H-pyrazol-4-yl]pyrazolo[1,5-a]pyrimidine-3-carboxamide] | 0.45 nM |  | 19 nM | 
11 | Cn1cc(NC(=O)c2cnn3cccnc23)c(-c2cc(SC3COC3)ccc2OC(F)F)n1 [Example 15, N-[3-[2-(difluoromethoxy)-5-(oxetan-3-ylsulfanyl)phenyl]-1-methyl-pyrazol-4-yl]pyrazolo[1,5-a]pyrimidine-3-carboxamide] |  | 0.13 nM | 14 nM | 
12 | CSc1ccc(OC(F)F)c(-c2nn(C3CCOCC3)cc2NC(=O)c2cnn3cccnc23)c1 [Example 16, N-[3-[2-(difluoromethoxy)-5-methylsulfanyl-phenyl]-1-tetrahydropyran-4-yl-pyrazol-4-yl]pyrazolo[1,5-a]pyrimidine-3-carboxamide] |  | 0.91 nM | 31 nM | 

More lines, main results first:

Row | Ki [1] | Ki [3] | Compound | IC50 ([2]; Homo sapiens, BEAS-2B, 1 h) | IC50 [2]
13 | 1.16 nM | 0.57 nM | O=C(Nc1c[nH]nc1-c1cc(SC2CCCNC2)ccc1OC(F)F)c1cnn2cccnc12 (single isomer, unassigned) [Example 37, N-[3-[2-(difluoromethoxy)-5-(3-piperidylsulfanyl)phenyl]-1H-pyrazol-4-yl]pyrazolo[1,5-a]pyrimidine-3-carboxamide] |  | 222 nM
14 | 2.93 nM | 1.38 nM | CN1CCCC(Sc2ccc(OC(F)F)c(-c3n[nH]cc3NC(=O)c3cnn4cccnc34)c2)C1 (single isomer, unassigned) [Example 38, N-[3-[2-(difluoromethoxy)-5-[(1-methyl-3-piperidyl)sulfanyl]phenyl]-1H-pyrazol-4-yl]pyrazolo[1,5-a]pyrimidine-3-carboxamide] | 56 nM | 
15 | 1.44 nM | 1.18 nM | O=C(Nc1cn(C2CN(C3CC(O)C3)C2)nc1-c1cc(SC2COC2)ccc1OC(F)F)c1cnn2cccnc12 (single isomer, unassigned) [Example 39, N-[3-[2-(difluoromethoxy)-5-(oxetan-3-ylsulfanyl)phenyl]-1-[1-(3-hydroxycyclobutyl)azetidin-3-yl]pyrazol-4-yl]pyrazolo[1,5-a]pyrimidine-3-carboxamide] | 35 nM | 
16 | 1.18 nM | 1.02 nM | O=C(Nc1cn(C2CN(C3CC(O)C3)C2)nc1-c1cc(SC2COC2)ccc1OC(F)F)c1cnn2cccnc12 (single isomer, unassigned) [Example 40, N-[3-[2-(difluoromethoxy)-5-(oxetan-3-ylsulfanyl)phenyl]-1-[1-(3-hydroxycyclobutyl)azetidin-3-yl]pyrazol-4-yl]pyrazolo[1,5-a]pyrimidine-3-carboxamide] |  | 45 nM
17 | 0.66 nM | 0.38 nM | O=C(Nc1cn(Cc2cn(C3CCN([C@@H]4CCOC4)CC3)nn2)nc1-c1cc(SC2COC2)ccc1OC(F)F)c1cnn2cccnc12 (stereo in doubt) [Example 21, N-[3-[2-(difluoromethoxy)-5-(oxetan-3-ylsulfanyl)phenyl]-1-[[1-[1-[rac-(3R)-tetrahydrofuran-3-yl]-4-piperidyl]triazol-4-yl]methyl]pyrazol-4-yl]pyrazolo[1,5-a]pyrimidine-3-carboxamide] | 57 nM | 
18 | 0.4 nM | 0.15 nM | O=C(Nc1c[nH]nc1-c1cc(SC2CCOCC2)ccc1OC(F)F)c1cnn2cccnc12 [Example 1, N-[3-[2-(difluoromethoxy)-5-tetrahydropyran-4-ylsulfanyl-phenyl]-1H-pyrazol-4-yl]pyrazolo[1,5-a]pyrimidine-3-carboxamide] | 11 nM | 
